Test results: a melting point compilation (Tetko et al.; mined from patent text by program, amines drawn as free bases though some values may be those of a salt)

Compound	melting point [°C]
CC(=O)Nc1ccc(Cn2cnc3c(-c4ccco4)ncnc32)cc1	278 to 280
CNc1ccc(-c2nc(C)c(-c3cccnc3)[nH]2)c(OC)c1	54 to 56
Cc1c(NC(=O)N2CCC(c3ccc(Cl)cc3)CC2)ccc2cc(CN3CCCC3)cnc12	203 to 205
CN1C(NCc2ccccc2)=Nc2ccncc2S1(=O)=O	142 to 146
C=CCN1CCC(Nc2nc3cncnc3n2Cc2ccc(F)cc2)CC1	145
CN(C(=O)On1nc(Br)c(Br)c1Br)c1ccccc1	115 to 119
COc1ccc(C(C)(c2ccc(OC)cc2)c2ccc(N(c3ccc(C)cc3)c3ccc(C)cc3)cc2)cc1	147 to 148
Fc1cc2c(Nc3ccc(F)c(C(F)(F)F)c3)ncnc2cn1	247 to 249
O=C(Nc1ccccc1)c1cccc(Nc2ccccc2)c1	134 to 135
COc1cc(Cc2cnc(NCCSCc3cc(CN(C)C)ccn3)[nH]c2=O)ccn1	65 to 74
CCCCCCCCCC(=O)c1cn(CCCC(=O)O)c2ccccc12	89 to 90
NS(=O)(=O)c1cc2nc(O)c(O)nc2c2ccccc12	> 300
O=C1OC2(CC(c3ccc(F)cc3)=NO2)c2ccccc21 (stereo unspecified)	142 to 145
O=C(c1ccccc1)N1CCC(O)(c2ccccc2Cc2ccccc2)C1 (stereo unspecified)	113 to 116
CC1(CN)CN(c2cc3c(cc2F)c(=O)c(C(=O)O)cn3C2CC2)C1	274 to 279
Nc1nc2ccccc2c2c1ncn2COCc1ccccc1	168 to 172
COc1ccc(S(=O)(=O)N2CCc3cccc(-c4ccc(C=O)cc4)c32)cc1	152 to 153
COC(=N)N1CCC(c2n[nH]c3cc(Cl)ccc23)CC1	173 to 175
N#Cc1c(N)nc2ccc(N3CCOCC3)cc2c1NCc1ccccc1	202
COc1ccc(-c2ccncc2)cc1Br	82 to 84
CC(C)(O)c1cnn2c(-c3cccc(-c4ccccc4C#N)c3)cnc2n1	166
CC1(C2CCCC2)Cc2cc(OCC#N)c(Cl)c(Cl)c2C1=O (stereo unspecified)	129 to 131
COc1cc(NC(=O)N[C@H]2CCCCNC2=O)c(O)c(C(C)(C)C)c1	178 to 179

Compound	melting point [°C]
CC(C)(C)[Si](C)(C)O[C@@H]1C=CO[C@H](CO)[C@H]1O	55 to 56
O=C(OCCN1CCN(c2cccc(C(F)(F)F)c2)CC1)c1cc(F)ccc1Nc1ccnc2cc(Cl)ccc12	113
N[C@@H]1C[C@H]2c3ccccc3-c3cccc(c32)NC1=O (relative stereo)	104 to 107
Clc1ccc(C2(c3ccc4noc(-c5ccccc5)c4c3)OCCO2)cc1	143
O=C1c2ccccc2C2(O)Oc3c(ccc4c3CCCC4)C12O (stereo unspecified)	252 to 254
CNC(=O)c1ccccc1Nc1nc(Nc2ccc3c(c2)CCC(F)(F)CC3)ncc1Cl	160 to 168
O=C(O)C1=C(c2cccs2)c2cc(Cl)ccc2OC1C(F)(F)F (stereo unspecified)	201 to 207
COc1ccc(-c2cc(=Nc3ccc(OCC4CO4)cc3)n(C)c(=O)n2C)cc1OC (stereo unspecified)	155 to 157
Cc1oc(-c2ccc(C(F)(F)F)cc2)nc1CC#N	85 to 86
O=C(C1CCCCC1)C1CCN(C(=O)c2cc(O)c(O)c([N+](=O)[O-])c2)CC1	155 to 165
CNc1c(OC)cc(C(=O)OC)cc1OC	49 to 51
O=C1C=C(O[C@@H]2c3cc(C(F)(F)C(F)(F)F)ccc3OC(CF)(CF)[C@H]2O)CC1 (relative stereo)	165 to 167
CNC(=O)c1cccc(F)c1Nc1nc(Nc2ccc3c(c2)NC(=O)C(N2CCOCC2)CC3)ncc1Cl (stereo unspecified)	270 to 271
CC(c1cc(F)cc(F)c1)n1ncc(-c2ccc(S(N)(=O)=O)cc2)c(-c2ccc(F)cc2)c1=O (stereo unspecified)	139 to 141
Cc1nnc2ccc(-c3ccc(N)c(C(F)(F)F)c3)nn12	240 to 242
CCc1noc(-c2cc3c(cn2)[nH]c2cccc(Oc4ncccn4)c23)n1	254 to 256
ClCc1nc2ccccc2c2ccnn12	135 to 136
CCc1cc2c(s1)-n1c(C)nnc1C(CCC(=O)Nc1ccccc1)N=C2c1ccc(Cl)cc1 (stereo unspecified)	183 to 185
c1ccc2c(N3CCCC3)nc(N3CCCC3)nc2c1	127 to 129
CC(CCC(=O)O)C1CCC2C3C(O)C(F)C4CC(O)CCC4(C)C3CCC12C (stereo unspecified)	102 to 105
O=c1c2c[nH]cc(-c3ccccc3)c-2nn1-c1ccccc1	280 to 285
CC(Cn1cnnn1)n1nnc2cc3c(=O)n(C)nnc3cc2c1=O (stereo unspecified)	228 to 230
CCC(=O)c1c(CC)n(Cc2ccccc2Cl)c2cc(C#N)ccc12	115 to 118

More lines, now with the values ahead:

melting point [°C]	Compound
195 to 197	CCOP(=O)(Cc1nnc2c(=O)[nH]c3c4ccccc4ccc3n12)OCC
257	COc1ccc(C(=O)C2=C(O)C(=O)N(c3nnc(C(C)C)s3)C2c2ccc(C(C)(C)C)cc2)cc1 (stereo unspecified)
134	CC1(C)OC(=O)N(Cc2ccccc2[N+](=O)[O-])C1=O
132 to 133	O=C(NCC1CC1)N1CC(Oc2cccc(C(F)(F)F)c2)C1
89 to 91	C=Cc1ccc2c(c1)CC(NC(=O)OC(C)(C)C)CC2 (stereo unspecified)
99 to 101	Cc1ccc(O)c(C)c1[N+](=O)[O-]
152	COCCN(CCOC)C1CCN(c2ccc(NC(=O)c3cnn(-c4ccc(Cl)cc4)c3C)cc2C#N)CC1
109 to 111	CCOC(=O)c1ccc(Cc2ccccc2)cn1
140	COC(=O)c1cnc2c(O)cccc2c1
> 250	CC(=O)C1=NN(c2ccc(C(=O)O)c(Cl)c2)C(=O)C1
119	COC(=O)CCCc1cc2nc(Cl)ccc2n1S(=O)(=O)c1cccnc1
55 to 58	COc1ccc(Cc2ccc(CO)nc2)cc1
202 to 203	CCOCc1nc2c(N)nc3cc(OCCCc4cccs4)ccc3c2n1CC(C)(C)NS(C)(=O)=O
130 to 131	CC(C)c1nn(-c2ccc([N+](=O)[O-])cn2)cc1CCCO
103 to 105	CCCCCCCCCCCCCCCCOc1ccc(S(N)(=O)=O)cc1N
79 to 82	COc1ccc(N2CCN(C(=O)NCCN(C)C)CC2)cc1
235 to 240	CCNC(=O)N1CCn2nc(-c3ccc(F)cc3)c(-c3ccncc3)c2N1
170 to 176	Cc1ccc(S(=O)(=O)OC(=O)c2ccc(C(=O)OS(=O)(=O)c3ccc(C)cc3)cc2)cc1
61 to 62	COc1cc(OC)nc(-c2ccc(C)cc2)n1
105 to 106	CCOC(=O)CC[C@H](NC(=O)c1ccc(I)cc1)C(=O)OCC
100 to 102	CCCCc1nnc(SC)n1Cc1ccc(-c2ccccc2-c2nnn[nH]2)cc1
155 to 157	COCC(=O)Nc1c(C(=O)c2cccc(C)c2)[nH]c2cc(Cl)ccc12
211 to 213	CN(Cc1cccc(-c2ccc(CC3SC(=O)NC3=O)cc2)c1)C(=O)c1ccc(-c2ccc(O)cc2)cc1 (stereo unspecified)
139 to 140	CC1=C(C(=O)OCCN(C)Cc2ccccc2)C(c2cccc([N+](=O)[O-])c2)C(P2(=O)OCCCO2)=C(C)N1 (stereo unspecified)
82	C=CC(CC(O)C(CC(C)C)NC(=O)C(Cc1c[nH]cn1)NC(=O)C(Cc1ccccc1)NC(=O)OC(C)(C)C)C(C)C (stereo unspecified)

melting point [°C]	Compound
70 to 71	CCCCCCCC/C=C\c1ccc(C(=O)NOCc2ccccc2)cc1
86 to 88	CC(=NOCCCOc1ccccc1)C(=O)O
201 to 203	CCOC(=O)c1ncc2[nH]c3ccc(C(C)(C)C)cc3c2c1C
174 to 175	O=C(Nc1c(C(O)(C(F)(F)F)C(F)(F)F)ccc2ccccc12)c1ccc(Cl)c(Cl)c1
138 to 142	O=C(Cn1sc2ccccc2c1=O)N1CCN(C(=O)OCc2ccccc2)CC1
195 to 197	CC(Cc1cccc2ccccc12)(Cc1cccc2ccccc12)C(=O)NC(C)(Cc1c[nH]c2ccccc12)C(=O)O (stereo unspecified)
221 to 223	COc1cccc([C@H]2O[C@H](CC(=O)NS(C)(=O)=O)C(=O)N(CC(C)(C)CO)c3ccc(Cl)cc32)c1OC
252 to 254	COc1ccc(C=CC(=O)NNC(=O)CCc2cc(C(C)(C)C)c(O)c(C(C)(C)C)c2)cc1
205	N=C(N)NC(=O)OCCNC(=O)c1ccc2cc(C(=O)NC(=N)N)ccc2c1
88 to 90	CC(C)Oc1ccc(S(=O)(=O)N2CCCC2=O)cc1
123 to 124	CCOC(=O)N(NC(N)=O)c1ccc(CC[Si](OCC)(OCC)OCC)cc1
70 to 71	O=C(CCC(=O)N1CCCCC1)c1ccc(F)cc1
270 to 271	NC(=O)Cn1c(-c2ccc(Cl)cc2)nc2cccnc21
143 to 145	O=C(NCCCCNS(=O)(=O)c1ccc(Oc2ccccc2)cc1)P(=O)(O)O
148 to 151	CCCCN(CCCC)CCCOc1ccc(C(=O)c2c(-c3ccccc3)cc3cc(C(=O)OCC)ccn23)cc1
125 to 127	Cc1oc(-c2ccc(Cl)cc2)nc1COc1cccc(CN(O)C(N)=O)c1
129	COC(=O)c1ccc(C(=O)N2CCC(NC3CCOCC3)CC2)cc1
105 to 107	CCCCC[C@@H](O)C=C[C@@H]1[C@@H](CC(=O)O)[C@@H](O)C[C@H]1O
171 to 172	CC(C)(C)OC(=O)N1CCN(c2c(F)cc(NC(=O)OCc3ccccc3)cc2F)CC1
256 to 257	COc1cc2ncc(NC(=O)C=Cc3cc(OC)c(OC(C)=O)c(OC)c3)c(-c3ccccc3)c2cc1OC
110 to 112	Cn1cc(C(=O)Nc2ccccc2-c2cc(F)ccc2F)c(C(F)(F)F)n1
254 to 256	Nc1ccc(Sc2c(NCc3ccccc3)cc(C(=O)O)cc2S(N)(=O)=O)cc1
146 to 147	COc1cc(COc2cc(CO)n(-c3ccccc3)n2)ccc1OCc1nc(-c2ccccc2)oc1C
163 to 166	COc1ccc(-c2cc(C)cn2-c2ccc(S(N)(=O)=O)cc2)cc1
136 to 138	CCOP(=O)(OCC)c1cc2c(c(C)c1-c1c(OC)ccc3ccccc13)COC2
